# How the values were obtained:
# APESV = experiment: Example IV postemergence foliar-applied, greenhouse, cereal crops weeds; format: in vivo, Apera spica-venti (L.) Beauv.
# Procedure: (§1) Seeds of the desired test plant species were planted in Sun Gro MetroMix® 306 planting mixture, which typically has a pH of 6.0 to 6.8 and an organic matter content of about 30 percent, in plastic pots with a surface area of 103.2 square centimeters (cm^2). […] The plants were grown for 7-36 days in a greenhouse with an approximate 14 hour photoperiod which was maintained at about 18° C. during the day and about 17° C. during the night. Nutrients and water were added on a regular basis and supplemental lighting was provided with overhead metal halide 1000-Watt lamps as necessary. The plants were employed for testing when they reached the second or third true leaf stage.
# (§2) Treatments consisted of the benzyl ester of 4-amino-3-chloro-5-fluoro-6-(4-chloro-2-fluoro-3-methoxy-phenyl)pyridine-2-carboxylic acid (Compound A), formulated as an SC, a second cereal herbicide alone and then both in combination.
# (§3) Other herbicidal components were applied on an active ingredient basis and included acetyl-CoA carboxylase (ACCase)-inhibiting herbicides clodinafop-propargyl, fenoxaprop-P-ethyl, pinoxaden and tralkoxydim.
# (§4) Measured aliquots of benzyl ester of 4-amino-3-chloro-5-fluoro-6-(4-chloro-2-fluoro-3-methoxy-phenyl)pyridine-2-carboxylic acid (Compound A) were placed in 25 milliliter (mL) glass vials and diluted in a volume of 1.25% (v/v) Agri-Dex® crop oil concentrate to obtain stock solutions. Compound requirements are based upon a 12 mL application volume at a rate of 187 liters per hectare (L/ha). […] Formulated compounds were applied to the plant material with an overhead Mandel track sprayer equipped with an 8002E nozzle calibrated to deliver 187 L/ha over an application area of 0.503 square meters (m^2) at a spray height of 18 inches (46 cm) above average plant canopy. Control plants were sprayed in the same manner with the solvent blank.
# (§5) The treated plants and control plants were placed in a greenhouse as described above and watered by sub-irrigation to prevent wash-off of the test compounds. After 20-22 days, the condition of the test plants as compared with that of the control plants was determined visually and scored on a scale of 0 to 100 percent where 0 corresponds to no injury and 100 corresponds to complete kill.
# (§6) Colby's equation was used to determine the herbicidal effects expected from the mixtures (Colby, S. R. 1967. Calculation of the synergistic and antagonistic response of herbicide combinations. Weeds 15:20-22.).
# (§7) The following equation was used to calculate the expected activity of mixtures containing two active ingredients, A and B: Expected=A+B−(A×B/100)
# ALOMY = experiment: as above; format: in vivo, Alopecurus myosuroides Huds.
# Procedure: (§8) Seeds of the desired test plant species were planted in Sun Gro MetroMix® 306 planting mixture, which typically has a pH of 6.0 to 6.8 and an organic matter content of about 30 percent, in plastic pots with a surface area of 103.2 square centimeters (cm^2). When required to ensure good germination and healthy plants, a fungicide treatment and/or other chemical or physical treatment was applied. The plants were grown for 7-36 days in a greenhouse with an approximate 14 hour photoperiod which was maintained at about 18° C. during the day and about 17° C. during the night. Nutrients and water were added on a regular basis and supplemental lighting was provided with overhead metal halide 1000-Watt lamps as necessary. The plants were employed for testing when they reached the second or third true leaf stage.
# as §2, §3
# (§9) Measured aliquots of benzyl ester of 4-amino-3-chloro-5-fluoro-6-(4-chloro-2-fluoro-3-methoxy-phenyl)pyridine-2-carboxylic acid (Compound A) were placed in 25 milliliter (mL) glass vials and diluted in a volume of 1.25% (v/v) Agri-Dex® crop oil concentrate to obtain stock solutions. Compound requirements are based upon a 12 mL application volume at a rate of 187 liters per hectare (L/ha). Spray solutions of the second cereal herbicide and experimental compound mixtures were prepared by adding the stock solutions to the appropriate amount of dilution solution to form 12 mL spray solution with active ingredients in two- and three-way combinations. Formulated compounds were applied to the plant material with an overhead Mandel track sprayer equipped with an 8002E nozzle calibrated to deliver 187 L/ha over an application area of 0.503 square meters (m^2) at a spray height of 18 inches (46 cm) above average plant canopy. Control plants were sprayed in the same manner with the solvent blank.
# as §5, with “kill. […]” for “kill.”
# LOLMU = experiment: as above; format: in vivo, Lolium multiflorum Lam.
# Procedure: as §8, §2, §3, §9, §5, §6, §7
# KCHSC = experiment: as above; format: in vivo, Kochia scoparia (L.) Schrad.
# Procedure: as §1, §2, §3, §4, §5, §6, §7
# PHAMI = experiment: as above; format: in vivo, Phalaris minor Retz.
# Procedure: as §1, §2, §3, §4, §5, §6, §7
# AVEFA = experiment: as above; format: in vivo, Avena fatua L.
# Procedure: as §8, §2, §3, §9
# as §5, with “kill. […]” for “kill.”
# CYPIR = experiment: Example I postemergence foliar-applied, greenhouse, direct seeded rice weeds; format: in vivo, Cyperus iria L.
# Text: Seeds or nutlets of the desired test plant species were planted in a soil matrix prepared by mixing a loam or sandy loam soil (e.g., 28.6 percent silt, 18.8 percent clay, and 52.6 percent sand, with a pH of about 5.8 and an organic matter content of about 1.8 percent) and calcareous grit in an 80 to 20 ratio. The soil matrix was contained in plastic pots with a volume of 1 quart and a surface area of 83.6 square centimeters (cm^2). When required to ensure good germination and healthy plants, a fungicide treatment and/or other chemical or physical treatment was applied. The plants were grown for 8-22 days in a greenhouse with an approximate 14 hr. photoperiod which was maintained at about 29° C. during the day and 26° C. during the night. Nutrients (Peters Excel® 15-5-15 5-Ca 2-Mg and iron chelate) were applied in the irrigation solution as needed and water was added on a regular basis. Supplemental lighting was provided with overhead metal halide 1000-Watt lamps as necessary. The plants were employed for testing when they reached the first through fourth true leaf stage.
# Treatments consisted of the acid or esters of 4-amino-3-chloro-5-fluoro-6-(4-chloro-2-fluoro-3-methoxy-phenyl)pyridine-2-carboxylic acid (Compound A), each formulated as an SC (suspension concentrate), and various herbicidal components alone and in combination.
# Other herbicidal components were applied on an acid equivalent (ae) or active ingredient (ai) basis and included acetyl coA carboxylase (ACCase)-inhibiting herbicides (cyclohexanedione and aryloxyphenoxypropionate chemical classes) cyhalofop-butyl formulated as Clincher® SF (285 gr ai/L EC), diclofop-methyl formulated as Hoelon® 3EC, fenoxaprop-p-ethyl+isoxadifen-ethyl formulated as RiceStar® HT (0.58 lb./gal EC), fenoxaprop-p-ethyl+mefenpyr diethyl formulated as Puma® IEC, metamifop formulated as Metamifop EC, haloxyfop-methyl formulated as Gallant Super®, fluazifop-p-butyl formulated as Fusilade® DX, quizalofop-p-ethyl formulated as Assure® II, profoxydim formulated as Aura® 20EC, clethodim applied as Intensity®, sethoxydim formulated as Poast®, and tralkoxydim formulated as Achieve®.
# Treatment requirements were calculated based upon the rates being tested, the concentration of active ingredient or acid equivalent in the formulation, and a 12 mL application volume at a rate of 187 L/ha.
# For treatments comprised of formulated compounds, measured amounts of compounds were placed individually in 25 mL glass vials and diluted in a volume of 1.25% (v/v) Agri-Dex® crop oil concentrated to obtain 12× stock solutions. […] Application solutions were prepared by adding an appropriate amount of each stock solution (e.g., 1 mL) and diluted to the appropriate final concentrations with the addition of 10 mL of an aqueous mixture of 1.25% (v/v) crop oil concentrate so that the final spray solutions contained 1.25+/−0.05% (v/v) crop oil concentrate.
# All stock solutions and applications solutions were visually inspected for compound compatibility prior to application. Spray solutions were applied to the plant material with an overhead Mandel track sprayer equipped with a 8002E nozzles calibrated to deliver 187 L/ha over an application area of 0.503 m^2 at a spray height of 18 to 20 inches (46 to 50 cm) above average plant canopy height. Control plants were sprayed in the same manner with the solvent blank.
# as §5, with “After approximately 3 weeks,” for “After 20-22 days,”, “the untreated” for “the control”, “injury or growth inhibition” for “injury”, “kill. […]” for “kill.”
Compound,Visual Weed Control (%) - 21 DAA APESV Obs (APESV; Clodinafop-propargyl 15 gai/ha) [%],Visual Weed Control (%) - 21 DAA APESV Obs (APESV; Clodinafop-propargyl 30 gai/ha) [%],Visual Weed Control (%) - 21 DAA ALOMY Obs (ALOMY; Clodinafop-propargyl 15 gai/ha) [%],Visual Weed Control (%) - 21 DAA ALOMY Obs (ALOMY; Clodinafop-propargyl 30 gai/ha) [%],Visual Weed Control (%) - 21 DAA LOLMU Obs (LOLMU; Clodinafop-propargyl 15 gai/ha) [%],Visual Weed Control (%) - 21 DAA LOLMU Obs (LOLMU; Clodinafop-propargyl 30 gai/ha) [%],Visual Weed Control (%) - 21 DAA KCHSC Obs (KCHSC; Clodinafop-propargyl 15 gai/ha) [%],Visual Weed Control (%) - 21 DAA KCHSC Obs (KCHSC; Clodinafop-propargyl 30 gai/ha) [%],Visual Weed Control (%) - 21 DAA PHAMI Obs (PHAMI; Clodinafop-propargyl 15 gai/ha) [%],Visual Weed Control (%) - 21 DAA PHAMI Obs (PHAMI; Clodinafop-propargyl 30 gai/ha) [%],Visual Weed Control (%) - 21 DAA AVEFA Obs (AVEFA; Tralkoxydim 50 gai/ha) [%],Visual Weed Control (%) - 21 DAA AVEFA Obs (AVEFA; Tralkoxydim 100 gai/ha) [%],Visual Weed Control (%) - 21 DAA LOLMU Obs (LOLMU; Tralkoxydim 50 gai/ha) [%],Visual Weed Control (%) - 21 DAA LOLMU Obs (LOLMU; Tralkoxydim 100 gai/ha) [%],Visual Weed Control (%) - 21 DAA KCHSC Obs (KCHSC; Tralkoxydim 50 gai/ha) [%],Visual Weed Control (%) - 21 DAA KCHSC Obs (KCHSC; Tralkoxydim 100 gai/ha) [%],Visual Weed Control (%) - 22 DAA CYPIR Obs (CYPIR; 100 gai/ha) [%],Visual Weed Control (%) - 22 DAA CYPIR Obs (CYPIR; 200 gai/ha) [%]
"C#CCOC(=O)[C@@H](C)Oc1ccc(Oc2ncc(Cl)cc2F)cc1 [Clodinafop-propargyl, 2-propynyl(2R)-2-[4-[(5-chloro-3-fluoro-2-pyridinyl)oxy]phenoxy]propanoate]",15,68,80,82,60,48,0,10,48,55,–,–,–,–,–,–,–,–
"CCO/N=C(/CC)C1=C(O)CC(c2c(C)cc(C)cc2C)CC1=O (stereo not drawn) [Tralkoxydim, 2-[1-(ethoxyimino)propyl]-3-hydroxy-5-(2,4,6-trimethylphenyl)-2-cyclohexen-1-one]",–,–,–,–,–,–,–,–,–,–,78,99,86,96,10,0,0,0
